Consider 1 compound from patent US6656690B2, “Mass spectrometric methods for biomolecular screening” (priority 1998, dated 2003).

SMILES strings stand for the structures.

For experiment [1], the target named is 27-mer model of the bacterial A site region, full ribonucleotide R. In words: Binding to 27-mer A site model as full ribonucleotide (R). Particulars: RNA R. As to the method:
(§1) The 27-mer model of a segment of the bacterial A site region has been prepared as a full ribonucleotide (see FIG. 27, compound R), and as a chimeric 2′-O-methylribonucleotide containing three deoxyadenosine residues (see FIG. 27, compound C). RNAs R and C have been prepared using conventional phosphoramidite chemistry on solid support. Phosphoramidites were purchased from Glen Research and used as 0.1 M solutions in acetonitrile. RNA R was prepared following the procedure given in Wincott, et al., Nucl. Acids Res., 1995, 23, 2677-2684, the disclosure of which is incorporated herein by reference in its entirety. RNA C was prepared using standard coupling cycles, deprotected, and precipitated from 10 M NH4OAc. The aminoglycoside paromomycin binds to both R and C with kD values of 0.25 and 0.45 micromolar, respectively. The reported kD values are around 0.2 μM. […]
(§2) The mass spectrum obtained from a 5 μM solution of C mixed with 125 nM paromomycin (FIG. 28A) contains [M-5H]5− ions from free C at m/z 1783.6 and the [M-5H]5− ions of the paromomycin-C complex at m/z 1907.3. […] Signals from the [M-4H]4− ions of C and the complex are detected at m/z 2229.8 and 2384.4, respectively. […] Fragment ions are detected at m/z 1005.6 (w6)2−, 1065.8 (a7-B)2−, 1162.6 (w7)2−, 1756.5 (M-Ad)5−, 2108.9 (w21-Ad)3−, 2153.4 (a20-B)3−, 2217.8 (w21)3−, and 2258.3 (a21-B)3−. […]

Experiment [2] concerns the target 27-mer model of the bacterial A site region, chimeric C. Briefly: Binding to 27-mer A site model as chimeric 2'-O-methylribonucleotide with three deoxyadenosines (C). Particulars: RNA C. As to the method: as §1, §2

Turning to `NC[C@@H]1O[C@H](O[C@H]2[C@@H](O)[C@H](O[C@@H]3[C@@H](O)[C@H](N)C[C@H](N)[C@H]3O[C@H]3O[C@H](CO)[C@@H](O)[C@H](O)[C@H]3N)O[C@@H]2CO)[C@H](N)[C@@H](O)[C@@H]1O` [paromomycin], the Kd (usually the equilibrium constant for the complex coming apart) in experiment [1] amounted to 0.25 µM; in experiment [2], 0.45 µM.
